Values after ≈ are worked out from the molar mass of the structure shown.
Key:
[1] = test system: Staphylococcus aureus (Isolate ID ATCC 29213); test: Antibacterial activity, MIC, S. aureus; type: cell-based; conditions: Staphylococcus aureus, ATCC29213, Gram positive strain; broth microdilution or agar dilution
Procedure, shortened: (§1)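 Compounds are serially diluted in broth or agar as CLSI specifies for aerobically growing bacteria, and the MIC is then recorded for each strain.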

[2] = test system: Haemophilus influenzae (Isolate ID ATCC 49247); test: Antibacterial activity, MIC, H. influenzae; type: cell-based; conditions: Haemophilus influenzae, ATCC49247; Gram negative strain; broth microdilution or agar dilution
Procedure, shortened: as §1

physchem = conditions: kinetic from dmso stock
Procedure, shortened: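 DMSO doubling dilutions were diluted twenty-fold into 100 mM citrate (pH 4), PBS (pH 7.4) or carbonate-bicarbonate (pH 9). After 24 h equilibration at room temperature, absorbance was read at 620 nm. The reported value is the highest concentration without measurable precipitate.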

[3] = test system: Enterococcus faecalis (Isolate ID ATCC 29212); test: Antibacterial activity, MIC, E. faecalis; type: cell-based; conditions: Enterococcus faecalis, ATCC29212; Gram positive strain; broth microdilution or agar dilution
Procedure, shortened: as §1

[4] = test system: Streptococcus pyogenes (Isolate ID ATCC 51339); test: Antibacterial activity, MIC, S. pyogenes; type: cell-based; conditions: Streptococcus pyogenes, ATCC51339, Gram positive strain; broth microdilution or agar dilution
Procedure, shortened: as §1

[5] = pH 7.4, aqueous buffer, Max Solubility
[6] = pH 7.4, aqueous buffer, Solubility (pH 7.4)
[7] = pH 7.4, aqueous buffer, Solubility Range
[8] = pH 7.4, aqueous buffer, Solubility Range (maximum solubility)
[9] = pH 9, aqueous buffer, Max Solubility
[10] = pH 9, aqueous buffer, Solubility Range (maximum solubility)

MIC [1]	MIC [2]	solubility at 24 h (physchem; [5])	solubility at 24 h (physchem; [6])	solubility at 24 h (physchem; [7])	solubility at 24 h (physchem; [8])	MIC [3]	MIC [4]	solubility at 24 h (physchem; [9])	solubility at 24 h (physchem; [10])	Compound
> 16 µg/mL	1 to 16 µg/mL (≈ 1.92 to 30.7 µM)	≥ 800 µg/mL	≥ 800 µg/mL	> 800 µg/mL	> 800 µg/mL	0.25 to 1 µg/mL (≈ 0.479 to 1.92 µM)	0.25 to 1 µg/mL (≈ 0.479 to 1.92 µM)	–	–	CCNC(=O)Nc1nc2cc(-c3cnc(N4CCC(C)(C(=O)O)CC4)nc3)cc(-c3cn(C)nn3)c2s1 [Compound 50, 1-[5-[2-(ethylcarbamoylamino)-7-(1-methyltriazol-4-yl)-1,3-benzothiazol-5-yl]pyrimidin-2-yl]-4-methyl-piperidine-4-carboxylic acid]
≤ 0.25 µg/mL	0.25 to 1 µg/mL (≈ 0.456 to 1.82 µM)	≥ 800 µg/mL	≥ 800 µg/mL	> 800 µg/mL	> 800 µg/mL	≤ 0.25 µg/mL	≤ 0.25 µg/mL	–	–	CCNC(=O)Nc1nc2cc(-c3cnc(N4CCC(C)(C(=O)O)CC4)nc3)cc(-c3ncc(OC)cn3)c2s1 [Compound 51]
≤ 0.25 µg/mL	1 to 16 µg/mL (≈ 1.83 to 29.2 µM)	≥ 800 µg/mL	≥ 800 µg/mL	> 800 µg/mL	> 800 µg/mL	≤ 0.25 µg/mL	≤ 0.25 µg/mL	–	–	CCNC(=O)Nc1nc2cc(-c3cnc(N4CCC(C)(C(=O)O)CC4)nc3)cc(-c3cccc(OC)n3)c2s1 [Compound 52]
≤ 0.25 µg/mL	1 to 16 µg/mL (≈ 1.82 to 29.1 µM)	–	25 µg/mL (≈ 45.5 µM)	12.5 to 400 µg/mL (≈ 22.7 to 728 µM)	–	≤ 0.25 µg/mL	≤ 0.25 µg/mL	≥ 800 µg/mL	> 800 µg/mL	CCNC(=O)Nc1nc2cc(-c3cnc(N4CCC(C)(C(=O)O)CC4)nc3)cc(-c3ccc(F)c(C)n3)c2s1 [Compound 53]
≤ 0.25 µg/mL	1 to 16 µg/mL (≈ 1.81 to 28.9 µM)	≥ 800 µg/mL	≥ 800 µg/mL	> 800 µg/mL	> 800 µg/mL	≤ 0.25 µg/mL	≤ 0.25 µg/mL	–	–	CCNC(=O)Nc1nc2cc(-c3cnc(N4CCC(C)(C(=O)O)CC4)nc3)cc(-c3ncc(F)cc3F)c2s1 [Compound 54]
≤ 0.25 µg/mL	0.25 to 1 µg/mL (≈ 0.442 to 1.77 µM)	–	400 µg/mL (≈ 707 µM)	400 to 800 µg/mL (≈ 707 to 1410 µM)	–	≤ 0.25 µg/mL	≤ 0.25 µg/mL	≥ 800 µg/mL	> 800 µg/mL	CCNC(=O)Nc1nc2cc(-c3cnc(N4CCC(C)(C(=O)O)CC4)nc3)cc(-c3nccc(OC)c3F)c2s1 [Compound 55]
≤ 0.25 µg/mL	0.25 to 1 µg/mL (≈ 0.456 to 1.82 µM)	≥ 800 µg/mL	≥ 800 µg/mL	> 800 µg/mL	> 800 µg/mL	≤ 0.25 µg/mL	≤ 0.25 µg/mL	–	–	CCNC(=O)Nc1nc2cc(-c3cnc(N4CCC(C)(C(=O)O)CC4)nc3)cc(-c3cnc(OC)cn3)c2s1 [Compound 56]
1 to 16 µg/mL (≈ 1.73 to 27.7 µM)	1 to 16 µg/mL (≈ 1.73 to 27.7 µM)	–	200 µg/mL (≈ 347 µM)	12.5 to 400 µg/mL (≈ 21.7 to 694 µM)	–	0.25 to 1 µg/mL (≈ 0.434 to 1.73 µM)	0.25 to 1 µg/mL (≈ 0.434 to 1.73 µM)	400 µg/mL (≈ 694 µM)	400 to 800 µg/mL (≈ 694 to 1390 µM)	CCNC(=O)Nc1nc2cc(-c3cnc(N4CCC(C)(C(=O)O)CC4)nc3)cc(-c3cc(=O)n(C(C)C)cn3)c2s1 [Compound 57]
≤ 0.25 µg/mL	1 to 16 µg/mL (≈ 1.8 to 28.7 µM)	–	25 µg/mL (≈ 44.9 µM)	12.5 to 400 µg/mL (≈ 22.5 to 719 µM)	–	≤ 0.25 µg/mL	≤ 0.25 µg/mL	50 µg/mL (≈ 89.8 µM)	12.5 to 400 µg/mL (≈ 22.5 to 719 µM)	CCNC(=O)Nc1nc2cc(-c3cnc(N4CCC(C)(C(=O)O)CC4)nc3)cc(-c3ccc(C#N)c(C)n3)c2s1 [Compound 58]
≤ 0.25 µg/mL	≤ 0.25 µg/mL	≥ 800 µg/mL	≥ 800 µg/mL	> 800 µg/mL	> 800 µg/mL	≤ 0.25 µg/mL	≤ 0.25 µg/mL	–	–	CCNC(=O)Nc1nc2cc(-c3cnc(N4CCC(C)(C(=O)O)CC4)nc3)cc(-c3ncc(C)cn3)c2s1 [Compound 59]
≤ 0.25 µg/mL	0.25 to 1 µg/mL (≈ 0.457 to 1.83 µM)	–	12.5 µg/mL (≈ 22.9 µM)	12.5 to 400 µg/mL (≈ 22.9 to 732 µM)	–	≤ 0.25 µg/mL	≤ 0.25 µg/mL	400 µg/mL (≈ 732 µM)	400 to 800 µg/mL (≈ 732 to 1460 µM)	CCNC(=O)Nc1nc2cc(-c3cnc(N4CCC(C)(C(=O)O)CC4)nc3)cc(-c3ncc(CC)cn3)c2s1 [Compound 60]

From patent US9181234B2, “Antibacterial compounds” (priority 2010, dated 2015)
